Measurements taken from patent US8871205B2, “Methods and compositions for the treatment of immune disorders” (The University of North Carolina at Chapel Hill, priority 2009, dated 2014).
“Also recorded” adds a separate entry of the source.

Tests used:
peritoneal macrophages = experiment: TLR agonist-induced cytokine production (ELISA) in peritoneal macrophages pretreated with Rac1 inhibitor; type: cell-based, mouse
Protocol: Immunoblot analysis of NF-κB and mitogen-activated protein kinase (MAPK) signaling molecules was performed with WT and Plxna4^−/− peritoneal macrophages left untreated (0) or treated for 15, 30 or 60 min with 1 μg/ml ultrapure LPS (FIG. 3A). FIG. 3B and FIG. 3C show chromatin immunoprecipitation (ChIP) assays of the binding of p65 or c-Jun at the promoter regions of Tnfa and Il6 gene in WT and Plxna4^−/− peritoneal macrophages left untreated or treated with 10 μg/ml poly(I:C), 1 μg/ml ultrapure LPS (B), 5 μg/ml Pam3Cys or 4 μg/ml CpG (C) for 1 h. Cells were left untreated (0) or treated for 15 or 30 min with 1 μg/ml ultrapure LPS. Rac1, Cdc42 and RhoA pull-down analysis were performed as described in the Examples section. Total Rac1, Cdc42 and RhoA in cell lysate were used as controls. […] Protein levels of TNF-α and IL-6 were measured by ELISA. The results shown are representative of three independent experiments and are expressed as mean±s.d. * P<0.05 compared to WT peritoneal macrophages without NSC23766 pretreatment.
Total peritoneal cells were harvested from the peritoneal cavities of naïve WT or Plxna4^−/− mice with two 10 ml cold sterile PBS wash. […] The remaining cells were thoroughly washed with PBS and counted in a hemocytometer. Cytospins were prepared and stained with Diff-Quik solutions, and the number of peritoneal macrophages was determined. […]
(§1) Cytokines generated by in vitro cultured peritoneal macrophages were quantified using the ELISA Set for mouse TNF-α or IL-6 (BD Biosciences) and mouse IFN-β ELISA Kit (PBL InterferonSource). For the in vivo experiments, concentrations of TNF-α, IL-1β, IL-6, IL-12p70, CCL2 and CCL3 were measured in cell-free peritoneal lavage fluid, serum, and lung homogenate using a Customized Mouse Cytokine 6-plex Panel (BioLegend) and a Luminex Bio-Plex 200 system (Bio-Rad Laboratories). […]

[1] = tested on: WT or Plxna4−/− peritoneal macrophages; experiment: TNF-α and IL-6 production (RT-PCR, ELISA) in peritoneal macrophages stimulated with Sema3A-Fc or Sema6A-Fc in the absence or presence of LPS; type: cell-based, mouse
Protocol: Messenger RNA (FIG. 7A) or protein (FIG. 7B) levels of TNF-α and IL-6 were measured by RT-PCR and ELISA, respectively. The IgG Fc fragment (100 μg/ml) was used as a negative control. WT and Plxna4^−/− mice (n=7˜9 per group) were pretreated with either Sema3A-Fc or IgG Fc control proteins at a dosage of 25 μg per kg body weight 1 h prior to CLP procedure (FIG. 7C). Survival rate was monitored for 5 days. τP<0.05 compared with WT mice pretreated with Sema3A-Fc. WT mice (n=4 per group) were pretreated with either Sema3A-Fc or IgG Fc control proteins, followed by CLP surgery (FIG. 7D). Inflammatory cytokines in peritoneal lavage collected 4 h after CLP were determined by ELISA. * P<0.05 compared to peritoneal lavage from WT mice pretreated with Sema3A-Fc (FIG. 7E). […] WT and Plxna4^−/− mice (n=4 per group experiment) were pretreated with either Sema3A-Fc or IgG Fc control proteins at a dosage of 25 ug/kg body weight 1 hour before CLP procedure. Inflammatory cytokines in peritoneal lavage collected 4 h after CLP were determined by ELISA. *P<0.05 compared with peritoneal lavage from WT mice pretreated with Sema3A-Fc (FIG. 7G).
Total peritoneal cells were harvested from the peritoneal cavities of naïve WT or Plxna4^−/− mice with two 10 ml cold sterile PBS wash. Lavage was pooled for mice in the same group. RBCs were lysed in ammonium chloride buffer (150 mM NH4CL, 10 mM NaHCO3, 1 mM EDTA-tetrasodium). The remaining cells were thoroughly washed with PBS and counted in a hemocytometer. Cytospins were prepared and stained with Diff-Quik solutions, and the number of peritoneal macrophages was determined. […]
as §1

WT and Plxna4−/− mice [2] = experiment: Inflammatory cytokines in peritoneal lavage after CLP (ELISA); type: in vivo; conditions: 25 μg/kg 1 h prior to CLP, 4 h after CLP, versus IgG Fc-treated controls
Protocol: (§2) WT and Plxna4^−/− peritoneal macrophages were stimulated with LPS (1 μg/ml) for 4 h in the absence or presence of either Sema3A-Fc or Sema6A-Fc fusion proteins (20 or 100 μg/ml) (FIG. 7A and FIG. 7B). Messenger RNA (FIG. 7A) or protein (FIG. 7B) levels of TNF-α and IL-6 were measured by RT-PCR and ELISA, respectively. The IgG Fc fragment (100 μg/ml) was used as a negative control. WT and Plxna4^−/− mice (n=7˜9 per group) were pretreated with either Sema3A-Fc or IgG Fc control proteins at a dosage of 25 μg per kg body weight 1 h prior to CLP procedure (FIG. 7C). Survival rate was monitored for 5 days. τP<0.05 compared with WT mice pretreated with Sema3A-Fc. […] Inflammatory cytokines in peritoneal lavage collected 4 h after CLP were determined by ELISA. * P<0.05 compared to peritoneal lavage from WT mice pretreated with Sema3A-Fc (FIG. 7E). […] Inflammatory cytokines in peritoneal lavage collected 4 h after CLP were determined by ELISA. *P<0.05 compared with peritoneal lavage from WT mice pretreated with Sema3A-Fc (FIG. 7G).
Cytokines generated by in vitro cultured peritoneal macrophages were quantified using the ELISA Set for mouse TNF-α or IL-6 (BD Biosciences) and mouse IFN-β ELISA Kit (PBL InterferonSource). […]
CLP surgery was performed on mice as previously described with minor modifications (Wen et al., 2008). […] For survival studies, mice subjected to surgery were monitored for 5 days. […]

Rac1 = target: T1, Rac1 (Mus musculus, UniProt P63001); experiment: Detection of GTP-bound Rac1 (pull-down) in macrophages; type: cell-based
T1 construct: endogenous in cells; host or cells: primary mouse peritoneal macrophages (WT, Plxna4-/-)
Protocol: The assays for GTP-bound Rac1, Cdc42 and RhoA were performed as described (Noren et al., 2000). Briefly, peritoneal macrophages were stimulated with 1 μg/ml LPS for various time periods. Cells were lysed and GTP-bound Rac1 and Cdc42 were affinity precipitated using Rac1/Cdc42-binding domain of PAK (PBD) fused with GST. GTP-bound RhoA was affinity precipitated using RhoA-binding domain of rhotekin (RBD) fused with GST. Bound proteins were resolved on a NuPAGE® (SDS PAGE) gel and were transferred onto nitrocellulose membranes. Membranes were immunoblotted with the appropriate primary antibodies against Rac1, Cdc42 or RhoA.
To assess a converging point for TLR and plexin-A4, we assayed for GTP-bound Rac1.

WT and Plxna4−/− mice [3] = experiment: Survival after experimental sepsis induced by CLP; type: in vivo; conditions: 25 μg/kg 1 h prior to CLP
Protocol: as §2
CLP surgery was performed on mice as previously described with minor modifications (Wen et al., 2008). […] For survival studies, mice subjected to surgery were monitored for 5 days. […] Colonies were counted and expressed as CFU/ml. […]
We next assessed if Sema3A engagement of plexin-A4 could synergistically exacerbate CLP-induced septic inflammation. […]

Row | Compound | cytokine production (peritoneal macrophages; TLR-activated Plxna4−/− macrophages, NSC23766 pretreatment) | IFN-β production (peritoneal macrophages; WT macrophages, Rac1 inhibition) | TNF-α and IL-6 production (peritoneal macrophages; WT peritoneal macrophages, NSC23766 200 μM pretreatment 1 h, various TLR agonists 4 h, ELISA) | LPS-induced TNF-α and IL-6 production (enhancement in LPS-responsiveness) ([1]; Plxna4−/− macrophages) | LPS-induced TNF-α and IL-6 production ([1]; WT peritoneal macrophages, suboptimal LPS, fusion proteins 20 or 100 μg/ml) | TNF-α and IL-6 production ([1]; semaphorin alone, absence of LPS, macrophages) | levels of inflammatory cytokines in peritoneal lavage (WT and Plxna4−/− mice [2]) | Rac1 activation (GTP-bound Rac1) (Rac1; Myd88−/− macrophages) | Rac1 activation (GTP-bound Rac1) (Rac1; Plxna4−/− macrophages) | Rac1 activation (GTP-bound Rac1) (Rac1; WT macrophages, LPS and Sema3A together) | Rac1 activation (GTP-bound Rac1) (Rac1; WT macrophages, single stimulus) | survival rate (WT and Plxna4−/− mice [3])
1 | CCN(CC)CCCC(C)Nc1nc(C)cc(Nc2ccc3nc(C)cc(N)c3c2)n1 (stereo not drawn) [NSC23766] | no inhibitory effect | not affected | significantly attenuate |  |  |  |  |  |  |  |  | 
2 | Sema3A: Recombinant human Sema3A-Fc (1250-S3, R&D); chimeric protein of human IgG1 Fc fragment fused to Sema3A; plexin-A4 ligand |  |  |  | completely abolished | enhanced | Neither Sema3A nor Sema6A alone induced; also recorded: failed to induce cytokine production | significantly higher levels | neither Sema3A nor LPS activated; also recorded: attenuated | not observed | enhanced this activation | resulted in Rac1 activation | did not affect
